Measured values reported in ChEMBL document CHEMBL1151757, “Synthesis, radiosynthesis, and biological evaluation of fluorine-18-labeled 2beta-carbo(fluoroalkoxy)-3beta-(3'-((Z)-2-haloethenyl)phenyl)nortropanes: candidate radioligands for in vivo imaging of the serotonin transporter with positron emission tomography” (J Med Chem, 2008).

Assays:
[1] = Ratio of drug uptake in putamen to cerebellum in anesthetized cynomolgus monkey after 235 mins postinjection; format: ADME, organism-based, Macaca fascicularis; conditions: in vivo
[2] = Ratio of drug uptake in midbrain to cerebellum in anesthetized cynomolgus monkey after 27.5 mins postinjection; format: ADME, organism-based, Macaca fascicularis; conditions: in vivo
Medulla [3] = experiment: Drug uptake in anesthetized cynomolgus monkey brain medulla after 18.5 mins postinjection; format: ADME, organism-based, Macaca fascicularis; conditions: in vivo
Caudate [4] = experiment: Drug uptake in anesthetized cynomolgus monkey brain caudate after 165 mins postinjection; format: ADME, organism-based, Macaca fascicularis, Caudate nucleus; conditions: in vivo, 2.75 h
[5] = Ratio of drug uptake in pons to cerebellum in anesthetized cynomolgus monkey after 145 mins postinjection; format: ADME, organism-based, Macaca fascicularis; conditions: in vivo
Putamen [6] = experiment: Drug uptake in anesthetized cynomolgus monkey brain putamen after 145 mins postinjection; format: ADME, organism-based, Macaca fascicularis; conditions: in vivo
Caudate [7] = experiment: Drug uptake in anesthetized cynomolgus monkey brain caudate after 12.5 mins postinjection; format: ADME, organism-based, Macaca fascicularis, Caudate nucleus; conditions: in vivo
Thalamus [8] = experiment: Drug uptake in anesthetized cynomolgus monkey brain thalamus after 2.5 mins postinjection; format: ADME, organism-based, Macaca fascicularis; set-up: unit not given here; conditions: in vivo
[9] = Ratio of drug uptake in frontal lobe to cerebellum in anesthetized cynomolgus monkey after 135 mins postinjection; format: ADME, organism-based, Macaca fascicularis; conditions: in vivo, 2.25 h
Pons [10] = experiment: Drug uptake in anesthetized cynomolgus monkey brain pons after 235 mins postinjection; format: ADME, organism-based, Macaca fascicularis; conditions: in vivo
Putamen [11] = experiment: Drug uptake in anesthetized cynomolgus monkey brain putamen after 165 mins postinjection; format: ADME, organism-based, Macaca fascicularis; conditions: in vivo, 2.75 h
Thalamus [12] = experiment: Drug uptake in anesthetized cynomolgus monkey brain thalamus after 15.5 mins postinjection; format: ADME, organism-based, Macaca fascicularis; set-up: unit not given here; conditions: in vivo
Medulla [13] = experiment: Drug uptake in anesthetized cynomolgus monkey brain medulla after 27.5 mins postinjection; format: ADME, organism-based, Macaca fascicularis; conditions: in vivo
Midbrain [14] = experiment: Drug uptake in anesthetized cynomolgus monkey brain midbrain after 175 mins postinjection; format: ADME, organism-based, Macaca fascicularis; conditions: in vivo
[15] = Ratio of drug uptake in medulla to cerebellum in anesthetized cynomolgus monkey after 85 mins postinjection; format: ADME, organism-based, Macaca fascicularis; conditions: in vivo
Midbrain [16] = experiment: Drug uptake in anesthetized cynomolgus monkey brain midbrain after 22.5 mins postinjection; format: ADME, organism-based, Macaca fascicularis; set-up: unit not given here; conditions: in vivo, 0.375 h
Putamen [17] = experiment: Drug uptake in anesthetized cynomolgus monkey brain putamen after 1.5 mins postinjection; format: ADME, organism-based, Macaca fascicularis; conditions: in vivo, 0.025 h
[18] = Ratio of drug uptake in occipital lobe to cerebellum in anesthetized cynomolgus monkey after 0.5 mins postinjection; format: ADME, organism-based, Macaca fascicularis; conditions: in vivo
[19] = Drug uptake in anesthetized cynomolgus monkey brain cerebellum after 6.5 mins postinjection; format: ADME, organism-based, Macaca fascicularis; conditions: in vivo
[20] = Drug uptake in anesthetized cynomolgus monkey brain frontal lobe after 65 mins postinjection; format: ADME, organism-based, Macaca fascicularis; conditions: in vivo
Thalamus [21] = experiment: Drug uptake in anesthetized cynomolgus monkey brain thalamus after 155 mins postinjection; format: ADME, organism-based, Macaca fascicularis; set-up: unit not given here; conditions: in vivo
Medulla [22] = experiment: Drug uptake in anesthetized cynomolgus monkey brain medulla after 125 mins postinjection; format: ADME, organism-based, Macaca fascicularis; conditions: in vivo
Putamen [23] = experiment: Drug uptake in anesthetized cynomolgus monkey brain putamen after 45 mins postinjection; format: ADME, organism-based, Macaca fascicularis; set-up: unit not given here; conditions: in vivo, 0.75 h
Medulla [24] = experiment: Drug uptake in anesthetized cynomolgus monkey brain medulla after 165 mins postinjection; format: ADME, organism-based, Macaca fascicularis; conditions: in vivo, 2.75 h
Putamen [25] = experiment: Drug uptake in anesthetized cynomolgus monkey brain putamen after 65 mins postinjection; format: ADME, organism-based, Macaca fascicularis; set-up: unit not given here; conditions: in vivo
[26] = Ratio of drug uptake in occipital lobe to cerebellum in anesthetized cynomolgus monkey after 18.5 mins postinjection; format: ADME, organism-based, Macaca fascicularis; conditions: in vivo
[27] = Drug uptake in anesthetized cynomolgus monkey brain cerebellum after 215 mins postinjection; format: ADME, organism-based, Macaca fascicularis; conditions: in vivo
[28] = Ratio of drug uptake in midbrain to cerebellum in anesthetized cynomolgus monkey after 22.5 mins postinjection; format: ADME, organism-based, Macaca fascicularis; conditions: in vivo, 0.375 h
Thalamus [29] = experiment: Drug uptake in anesthetized cynomolgus monkey brain thalamus after 3.5 mins postinjection; format: ADME, organism-based, Macaca fascicularis; set-up: unit not given here; conditions: in vivo
[30] = Ratio of drug uptake in pons to cerebellum in anesthetized cynomolgus monkey after 105 mins postinjection; format: ADME, organism-based, Macaca fascicularis; conditions: in vivo, 1.75 h
Midbrain [31] = experiment: Drug uptake in anesthetized cynomolgus monkey brain midbrain after 105 mins postinjection; format: ADME, organism-based, Macaca fascicularis; set-up: unit not given here; conditions: in vivo, 1.75 h
[32] = Ratio of drug uptake in thalamus to cerebellum in anesthetized cynomolgus monkey after 95 mins postinjection; format: ADME, organism-based, Macaca fascicularis; conditions: in vivo
Midbrain [33] = experiment: Drug uptake in anesthetized cynomolgus monkey brain midbrain after 3.5 mins postinjection; format: ADME, organism-based, Macaca fascicularis; set-up: unit not given here; conditions: in vivo
[34] = Ratio of drug uptake in midbrain to cerebellum in anesthetized cynomolgus monkey after 125 mins postinjection; format: ADME, organism-based, Macaca fascicularis; conditions: in vivo
[35] = Drug uptake in anesthetized cynomolgus monkey brain occipital lobe after 6.5 mins postinjection; format: ADME, organism-based, Macaca fascicularis; set-up: unit not given here; conditions: in vivo
[36] = Ratio of drug uptake in pons to cerebellum in anesthetized cynomolgus monkey after 95 mins postinjection; format: ADME, organism-based, Macaca fascicularis; conditions: in vivo
Thalamus [37] = experiment: Drug uptake in anesthetized cynomolgus monkey brain thalamus after 35 mins postinjection; format: ADME, organism-based, Macaca fascicularis; set-up: unit not given here; conditions: in vivo
Midbrain [38] = experiment: Drug uptake in anesthetized cynomolgus monkey brain midbrain after 135 mins postinjection; format: ADME, organism-based, Macaca fascicularis; conditions: in vivo, 2.25 h
Thalamus [39] = experiment: Drug uptake in anesthetized cynomolgus monkey brain thalamus after 18.5 mins postinjection; format: ADME, organism-based, Macaca fascicularis; set-up: unit not given here; conditions: in vivo
Thalamus [40] = experiment: Drug uptake in anesthetized cynomolgus monkey brain thalamus after 145 mins postinjection; format: ADME, organism-based, Macaca fascicularis; set-up: unit not given here; conditions: in vivo
Midbrain [41] = experiment: Drug uptake in anesthetized cynomolgus monkey brain midbrain after 235 mins postinjection; format: ADME, organism-based, Macaca fascicularis; conditions: in vivo
Pons [42] = experiment: Drug uptake in anesthetized cynomolgus monkey brain pons after 85 mins postinjection; format: ADME, organism-based, Macaca fascicularis; conditions: in vivo
Putamen [43] = experiment: Drug uptake in anesthetized cynomolgus monkey brain putamen after 215 mins postinjection; format: ADME, organism-based, Macaca fascicularis; conditions: in vivo
Midbrain [44] = experiment: Drug uptake in anesthetized cynomolgus monkey brain midbrain after 165 mins postinjection; format: ADME, organism-based, Macaca fascicularis; conditions: in vivo, 2.75 h
[45] = Drug uptake in anesthetized cynomolgus monkey brain frontal lobe after 95 mins postinjection; format: ADME, organism-based, Macaca fascicularis; conditions: in vivo
Thalamus [46] = experiment: Drug uptake in anesthetized cynomolgus monkey brain thalamus after 235 mins postinjection; format: ADME, organism-based, Macaca fascicularis; set-up: unit not given here; conditions: in vivo
[47] = Ratio of drug uptake in pons to cerebellum in anesthetized cynomolgus monkey after 225 mins postinjection; format: ADME, organism-based, Macaca fascicularis; conditions: in vivo, 3.75 h
Medulla [48] = experiment: Drug uptake in anesthetized cynomolgus monkey brain medulla after 235 mins postinjection; format: ADME, organism-based, Macaca fascicularis; conditions: in vivo
Caudate [49] = experiment: Drug uptake in anesthetized cynomolgus monkey brain caudate after 185 mins postinjection; format: ADME, organism-based, Macaca fascicularis, Caudate nucleus; conditions: in vivo
[50] = Ratio of drug uptake in occipital lobe to cerebellum in anesthetized cynomolgus monkey after 195 mins postinjection; format: ADME, organism-based, Macaca fascicularis; conditions: in vivo, 3.25 h
[51] = Ratio of drug uptake in putamen to cerebellum in anesthetized cynomolgus monkey after 3.5 mins postinjection; format: ADME, organism-based, Macaca fascicularis; conditions: in vivo
[52] = Ratio of drug uptake in pons to cerebellum in anesthetized cynomolgus monkey after 195 mins postinjection; format: ADME, organism-based, Macaca fascicularis; conditions: in vivo, 3.25 h
Thalamus [53] = experiment: Drug uptake in anesthetized cynomolgus monkey brain thalamus after 195 mins postinjection; format: ADME, organism-based, Macaca fascicularis; conditions: in vivo, 3.25 h
[54] = Ratio of drug uptake in medulla to cerebellum in anesthetized cynomolgus monkey after 185 mins postinjection; format: ADME, organism-based, Macaca fascicularis; conditions: in vivo
[55] = Ratio of drug uptake in occipital lobe to cerebellum in anesthetized cynomolgus monkey after 125 mins postinjection; format: ADME, organism-based, Macaca fascicularis; conditions: in vivo
Thalamus [56] = experiment: Drug uptake in anesthetized cynomolgus monkey brain thalamus after 205 mins postinjection; format: ADME, organism-based, Macaca fascicularis; conditions: in vivo
[57] = Ratio of drug uptake in caudate to cerebellum in anesthetized cynomolgus monkey after 18.5 mins postinjection; format: ADME, organism-based, Macaca fascicularis; conditions: in vivo
[58] = Ratio of drug uptake in midbrain to cerebellum in anesthetized cynomolgus monkey after 185 mins postinjection; format: ADME, organism-based, Macaca fascicularis; conditions: in vivo
[59] = Drug uptake in anesthetized cynomolgus monkey brain cerebellum after 195 mins postinjection; format: ADME, organism-based, Macaca fascicularis; conditions: in vivo, 3.25 h

O=C(OCC[18F])C1C2CCC(CC1c1cccc(/C=C\I)c1)N2 (stereo not given)
Ratio [1]: 1.8
Ratio [2]: 1.1
Drug uptake (Medulla [3]): 3.61
Drug uptake (Caudate [4]): 2.56
Ratio [5]: 1.4
Drug uptake (Putamen [6]): 3.27
Drug uptake (Caudate [7]): 2.74
Drug uptake (Thalamus [8]): 0.43
Ratio [9]: 1.1
Drug uptake (Pons [10]): 1.97
Drug uptake (Putamen [11]): 3.02
Drug uptake (Thalamus [12]): 3.48
Drug uptake (Medulla [13]): 3.97
Drug uptake (Midbrain [14]): 3.46
Ratio [15]: 1.3
Drug uptake (Midbrain [16]): 4.56
Drug uptake (Putamen [17]): 0.1
Ratio [18]: 0.8
Drug uptake [19]: 2.98
Drug uptake [20]: 2.78
Drug uptake (Thalamus [21]): 3.03
Drug uptake (Medulla [22]): 3.27
Drug uptake (Putamen [23]): 4.41
Drug uptake (Medulla [24]): 2.88
Drug uptake (Putamen [25]): 4.36
Ratio [26]: 0.7
Drug uptake [27]: 1.4
Ratio [28]: 1.1
Drug uptake (Thalamus [29]): 0.96
Ratio [30]: 1.3
Drug uptake (Midbrain [31]): 4.34
Ratio [32]: 1.5
Drug uptake (Midbrain [33]): 1.19
Ratio [34]: 2
Drug uptake [35]: 2
Ratio [36]: 1.2
Drug uptake (Thalamus [37]): 4.2
Drug uptake (Midbrain [38]): 3.97
Drug uptake (Thalamus [39]): 3.7
Drug uptake (Thalamus [40]): 3.16
Drug uptake (Midbrain [41]): 2.94
Drug uptake (Pons [42]): 3.13
Drug uptake (Putamen [43]): 2.53
Drug uptake (Midbrain [44]): 3.53
Drug uptake [45]: 2.53
Drug uptake (Thalamus [46]): 2.2
Ratio [47]: 1.6
Drug uptake (Medulla [48]): 2.32

O=C(OCC[18F])C1C2CCC(CC1c1ccc(/C=C\I)cc1)N2 (stereo not given)
Ratio [1]: 3.8
Drug uptake (Medulla [3]): 3.01
Drug uptake (Caudate [4]): 2.99
Ratio [5]: 2.3
Drug uptake (Putamen [6]): 4.31
Drug uptake (Caudate [49]): 2.97
Ratio [50]: 1.4
Drug uptake (Thalamus [8]): 0.4
Drug uptake (Pons [10]): 3.06
Drug uptake (Putamen [11]): 4.22
Drug uptake (Thalamus [12]): 2.54
Drug uptake (Medulla [13]): 3.35
Drug uptake (Midbrain [14]): 4.61
Ratio [51]: 1
Ratio [15]: 1.8
Drug uptake (Midbrain [16]): 3.04
Drug uptake (Putamen [17]): 0.11
Drug uptake [19]: 1.79
Drug uptake [20]: 2.03
Drug uptake (Thalamus [21]): 3.97
Drug uptake (Medulla [22]): 3.81
Ratio [52]: 2.6
Drug uptake (Putamen [23]): 3.8
Drug uptake (Medulla [24]): 3.58
Drug uptake (Thalamus [53]): 3.67
Ratio [26]: 0.7
Ratio [54]: 2.5
Drug uptake [27]: 1.18
Ratio [55]: 1.3
Drug uptake (Thalamus [29]): 0.76
Drug uptake (Thalamus [56]): 3.59
Ratio [30]: 1.8
Drug uptake (Midbrain [31]): 4.55
Ratio [32]: 1.9
Drug uptake (Midbrain [33]): 0.84
Ratio [34]: 2.7
Drug uptake [35]: 1.21
Ratio [57]: 0.7
Ratio [36]: 1.6
Drug uptake (Thalamus [37]): 3.31
Ratio [58]: 3.5
Drug uptake (Midbrain [38]): 4.7
Drug uptake (Thalamus [39]): 2.7
Drug uptake (Thalamus [40]): 3.98
Drug uptake (Midbrain [41]): 4.44
Drug uptake (Pons [42]): 3.38
Drug uptake (Putamen [43]): 3.93
Drug uptake (Midbrain [44]): 4.6
Drug uptake [45]: 2.03
Drug uptake (Thalamus [46]): 3.34
Drug uptake [59]: 1.29
Drug uptake (Medulla [48]): 3.3
